Test results reported in patent EP4669337B1, “AGENTS USEFUL FOR THE PREVENTION OR TREATMENT OF ALLERGIC & INFLAMMATORY DISORDERS” (ATOPIA THERAPEUTICS SA, priority 2023, dated 2025).

Test system: engineered human embryonic kidney (HEK-293) TGF-β reporter cells
Assay: HEK-Blue hTGFβ reporter cell assay (Smad-inducible SEAP, optical density at 650 nm)
Type: cell-based
Conditions: 20 µl of a 3µM inhibitor solution in 200 µl total volume, added 1 hour before the test compound; SEQ ID NO:31 at 6.25-150 µg/ml; overnight incubation
Experimental: Polypeptides of the invention have been tested in the cells above in order to determine cell-surface receptors through which they signal and thereby induce immunotolerance. For this purpose, a peptide of the invention of SEQ ID NO:31 was administered to commercial engineered human embryonic kidney (HEK-293) TGF-β reporter cells that induce the production of Smad-inducible secreted embryonic alkaline phosphatase (SEAP) when human TGF-β triggers a signaling cascade leading to the formation of a Smad3/Smad4 complex which can be monitored by optical density at 650 nm as follows.
In a 96-well plate (200 µl total volume), 20 µl of a solution containing 3µM of the inhibitor LY-364947 in medium, or medium alone, are placed in a well, followed by the addition 160 µl of the HEK-Blue hTGFβ cell suspension. After 1 hour incubation, 20 µl of the test compound or the positive control are added to the wells. […] SEAP activity is assayed from the supernatant of HEK-Blue hTGFb cell by reading the optical density at 650 nm using a spectrophotometer after 3 hours incubation at 37°C with Quanti-blue, a SEAP detection reagent.
In this particular case, the formation of the Smad3/Smad4 complex (illustrated by the measured OD650 as shown on Figure 8) was induced by the presence of SEQ ID NO:31 at the following concentrations: 6.25, 12.5, 25, 50, 75, 100, 125, and 150 µg/ml. […]

c1ccc(-c2nn3c(c2-c2ccnc4cc(OCCN5CCOCC5)ccc24)CCC3)nc1 [LY2109761]
Smad3/Smad4 signaling cascade induced by SEQ ID NO:31 (SEAP, OD650): antagonized
